Read-outs that look alike come from different tables or passages of the source.
Experiments:
Format in all cases: cell-based, canine
CMGT071020 cells [1] = assay: MTT cell proliferation/cytotoxicity assay; conditions: Canis lupus familiaris, read-out: Half-Maximal Inhibitory Concentration (IC50)
Description: (§1) The cytotoxic effects of the three BZOP derivatives were studied via the 3-(4,5-Dimethyl-2-thiazolyl)-2,5-diphenyl-2H-tetrazolium bromide (MTT) assay. The REM134, CMGT071020, and MDCK cell lines were seeded at a density of 5 × 10^3 cells/well in 96-well plates and allowed to grow for 24 h. They were then treated with the three BZOP derivatives at various concentrations (0–300 µM) for 24 or 48 h, whereas cells treated with the culture medium containing 0.1% dimethyl sulfoxide (DMSO) were used as a negative control as the compounds were dissolved in DMSO. Subsequently, the cells were incubated with 10 µL of an MTT solution (Sigma, St. Louis, MO, USA) for 4 h. After the incubation with MTT solution, 100 µL of a solubilization solution was added to dissolve water-insoluble purple formazan crystals, and the plate was incubated overnight at 37 °C in 5% CO2. The absorbance of the formazan solution was measured using a Synergy H1 hybrid multi-mode microplate reader (BioTek, Winooski, VT, USA) at 570 nm. The experiment was conducted with four replicates, and the relative cell viability (%) of the treated cells was expressed as a percentage relative to the untreated control cells, which were considered to have 100% viability.

MDCK cells = assay: MTT cell proliferation/cytotoxicity assay; conditions: Canis lupus familiaris, read-out: Half-Maximal Inhibitory Concentration (IC50)
Description: as §1

REM134 cells [2] = assay: MTT cell proliferation/cytotoxicity assay; conditions: Canis lupus familiaris, read-out: Half-Maximal Inhibitory Concentration (IC50)
Description: as §1

REM134 cells [3] = assay: Immunohistochemistry of vimentin and cytokeratin, Allred score; conditions: REM134, 0-200 µM, 48 h, treatment vs control
Description: The cells were cultured in a T-25 cell culture flask (SPL life science, Gyeonggi-do, Republic of Korea) at a density of 2 × 10^5 cells/well and allowed to incubate for 24 h until they reached 60–70% confluence. They were subsequently treated with MPOBA at varying concentrations from 0 to 200 µM for 48 h. After treatment, cells were harvested using TrypLE and subjected to centrifugation at 1200 rpm for 5 min to obtain cell pellets. Then, the supernatant was replaced with 10% formalin, and the cell pellets were fixed overnight. The fixed cell pellets were embedded in paraffin blocks and sectioned with a thickness of 3 μm. These slide sections were then subjected to the deparaffinization and rehydration processes. For antigen retrieval, a heat-induced method was adopted, utilizing a vegetable steamer in a citrate buffer (pH = 6) at 90–100 °C for 45 min, followed by a cooling period of 30 min. After these preparatory steps, slides were mounted on cover plates within a Sequenza slide rack (Thermo Scientific, Waltham, MA, USA), void of air bubbles, and filled with Tris-buffered saline (TBS) (pH = 7.6). The immunohistochemical detection employed a Novolink™ Polymer Detection Kit (Leica Biosystems, Newcastle, UK) according to the manufacturer’s instructions. This began with the inhibition of endogenous peroxidase activity with a 150 μL peroxidase block at room temperature for 5 min, followed by washing with TBS three times for 3 min each. Subsequently, a 150 μL protein block was applied, incubated for 5 min, and washed three times with TBS for 3 min. Primary antibodies, including a vimentin (VT) mouse anti-human monoclonal antibody (Clone V9, ready-to-use kit, Leica Biosystems, Newcastle, UK) and a multi-cytokeratin (CK) mouse antibody (Clone AE1/AE3, ready-to-use kit, Leica Biosystems, Newcastle, UK), were incubated at 37 °C for 1 h. […]
A quantitative evaluation of the stained slides was performed utilizing the Allred scoring method and QuPath bioimaging software version 0.4.4 [48] to mitigate potential biases. […] The positive cells were systematically detected using the “positive cell detection” command in the analyze menu. The Allred score was calculated according to the quantity of marked cells and the intensity of the staining, as shown in Table S1. […] The scores and criteria used to quantify the labeled cells were 0, no labeling; 1, labeling in <1% of cells; 2, labeling in 1–10% of cells; 3, labeling in 11–33% of cells; 4, labeling in 34–66% of cells; and 5, labeling in 67–100% of cells. […] The staining intensity was determined visually. The sum of these criteria for each sample determined the final score.

CMGT071020 cells [4] = assay: Transwell migration assay; conditions: 24 h, vs control (0.1% DMSO)
Description: (§2) The CMC cell migration assay was carried out using Transwell 24-well microplates with an 8 µm pore size (Costar, Corning, NY, USA). Both CMC cell lines were seeded into the upper Transwell insert at a density of 5 × 10^3 cells/well, containing various concentrations of MPOBA (0–200 µM) with 5% FBS in DMEM media. Then, 10% FBS in DMEM medium was added into the lower chambers, and the cells were incubated for 24 h. After an incubation duration of 24 h, the non-invaded cells were removed with a cotton swab from the upper surface of the membrane, and the invaded cells on the lower surface of the membrane were fixed with 100% methanol for 1 min and stained with the Wright–Giemsa stain for 20 min. The number of migrated cells was averaged by counting five random microscope fields for each sample at 4 × magnification in four independent experiments.

REM134 cells [5] = assay: Transwell migration assay; conditions: 24 h, vs control (0.1% DMSO)
Description: as §2

Cc1ncccc1Oc1ccccc1C=O [MPOBA, 2-((2-methylpyridin-3-yl)oxy)benzaldehyde] was tested, and the IC50 (CMGT071020 cells [1]; CMGT071020, 24 h) was > 300 µM, the IC50 (CMGT071020 cells [1]; CMGT071020, 48 h) was 104 µM and the IC50 (MDCK cells; 24 h) was > 300 µM. The IC50 (MDCK cells; 48 h) was 267 µM, the IC50 (REM134 cells [2]; REM134, 24 h) was 265 µM and the IC50 (REM134 cells [2]; REM134, 48 h) was 87 µM. For the same molecule, the “cytokeratin (CK) expression, Allred score” value (REM134 cells [3]) was “no statistically significant difference”, the “vimentin (VT) expression, Allred score” value (REM134 cells [3]) was “no statistically significant difference” and the “percentage of migrated cells” value (CMGT071020 cells [4]; CMGT071020, 100 µM) was 68%. For the same molecule, the “percentage of migrated cells” value (CMGT071020 cells [4]; CMGT071020, 200 µM) was 40%, the “percentage of migrated cells” value (REM134 cells [5]; REM134, 100 µM) was 35% and the “percentage of migrated cells” value (REM134 cells [5]; REM134, 200 µM) was 26%.

— paper PMC10854894, “A New Benzo[6,7]oxepino[3,2-b] Pyridine Derivative Induces Apoptosis in Canine Mammary Cancer Cell Lines” (Animals : an Open Access Journal from MDPI, 2024)
